The text below walks through data of ChEMBL document CHEMBL1201862, “PubChem BioAssay data set” (2004).

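Assay format: 96-well plates, 48-hour exposure. Here, GI50 denotes the concentration required for 50% inhibition of growth.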 Calls of active or inactive are those of the source. Cut-off read from the data, not from the text of the source: active = GI50 up to about 1.1 µM and inactive = higher.

Among the test systems are EKVX; SK-OV-3; KM12; NCI/ADR-RES; SK-MEL-5; COLO 205; SF-268; U-251; RPMI-8226; CAKI-1; HCT-116; Malme-3M; SW-620; A549; OVCAR-4; A498; MCF7; SK-MEL-2; OVCAR-3; LOX IMVI.
What all share (experiment): DTP human tumour cell line panel, 48 h

In the case of `CC1(CO)OC(n2cnc3cncnc32)CC1O` (stereo not given), the GI50 in the assay on EKVX, in the assay with SK-OV-3, in the assay on KM12, with NCI/ADR-RES, with SK-MEL-5 and with COLO 205 was > 100 µM (inactive) throughout. For the same molecule, the GI50 with SF-268, with U-251, in the assay with RPMI-8226, in the assay with CAKI-1, with HCT-116 and in the assay with Malme-3M was > 100 µM (inactive) each time. Besides, the GI50 in the assay with SW-620, with A549, with OVCAR-4, with A498, in the assay on MCF7 and in the assay with SK-MEL-2 was > 100 µM (inactive) in each case. Further, the GI50 in the assay with OVCAR-3 is > 100 µM (inactive).

In the case of `Cc1ccc(/C=C/C(=O)c2cc(CN(C)C)c(O)c(CN(C)C)c2)cc1`, the GI50 with EKVX was 25.7 µM (inactive); in the assay with KM12, 12.1 µM (inactive); in the assay with NCI/ADR-RES it was 25.4 µM (inactive); in the assay on SK-MEL-5 it was 14.7 µM (inactive); in the assay with COLO 205, 10.6 µM (inactive); with SF-268 it was 25.9 µM (inactive). Besides, the GI50 was 21.9 µM (inactive) in the assay with U-251; 13.2 µM (inactive) in the assay on RPMI-8226; 20.7 µM (inactive) in the assay on CAKI-1; 15.5 µM (inactive) in the assay with HCT-116; 18.3 µM (inactive) with Malme-3M; 16.1 µM (inactive) in the assay on SW-620. In addition, the GI50 in the assay with A549 is 18.8 µM (inactive); in the assay on A498, 25.2 µM (inactive); in the assay with LOX IMVI, 6.65 µM (inactive); in the assay on MCF7, 17.3 µM (inactive); in the assay on OVCAR-3 it was 14.6 µM (inactive).

Turning to `CC12C(=O)OC(=O)C1(C)C1C=CC2O1` (stereo not given), the GI50 with EKVX is > 100 µM (inactive); with SK-OV-3, > 100 µM (inactive); with KM12, > 100 µM (inactive); with NCI/ADR-RES, > 100 µM (inactive); with SK-MEL-5, 66.4 µM (inactive); with COLO 205, > 100 µM (inactive). For the same molecule, the GI50 with SF-268 is 59.7 µM (inactive); in the assay with U-251 it was > 100 µM (inactive); in the assay with RPMI-8226, > 100 µM (inactive); in the assay with CAKI-1 it was 54.7 µM (inactive); with HCT-116, > 100 µM (inactive); in the assay on Malme-3M, 67.6 µM (inactive). For the same molecule, the GI50 with SW-620, with A549, in the assay on A498, in the assay on LOX IMVI, with MCF7 and in the assay with SK-MEL-2 was > 100 µM (inactive) each time. For the same molecule, the GI50 in the assay on OVCAR-3 was 30.3 µM (inactive).

On to `CC(C)(C)OC(=O)N1CCC(NC(=O)NC2CCN(C(=O)OC(C)(C)C)CC2)CC1`, for which the GI50 with EKVX, in the assay on KM12, in the assay with NCI/ADR-RES, in the assay on SF-268, in the assay with U-251 and in the assay with RPMI-8226 was > 100 µM (inactive) each time. Moreover, the GI50 in the assay with CAKI-1, in the assay on HCT-116, in the assay on Malme-3M, in the assay with SW-620, in the assay with A549 and in the assay with OVCAR-4 was > 100 µM (inactive) each time. The GI50 with A498, with LOX IMVI, in the assay with MCF7, in the assay with SK-MEL-2 and in the assay with OVCAR-3 was > 100 µM (inactive) each time.

As for `N#Cc1c2c(c(Nc3ccc(F)cc3)n3c1nc1ccccc13)CCCC2`, the GI50 with EKVX is > 100 µM (inactive); in the assay with SK-OV-3, 97.9 µM (inactive); with KM12, 5.6 µM (inactive); in the assay with NCI/ADR-RES it was > 100 µM (inactive); in the assay on SK-MEL-5, 23.8 µM (inactive); in the assay with COLO 205 it was > 22.1 µM (inactive). Besides, the GI50 is > 100 µM (inactive) with SF-268; 43.8 µM (inactive) in the assay on U-251; 10.5 µM (inactive) in the assay on RPMI-8226; > 52.2 µM (inactive) in the assay with CAKI-1; 20 µM (inactive) in the assay on HCT-116; > 100 µM (inactive) in the assay on Malme-3M. The GI50 is > 54 µM (inactive) in the assay on SW-620; 97.9 µM (inactive) in the assay on A549; > 87.3 µM (inactive) in the assay on OVCAR-4; > 100 µM (inactive) in the assay with A498; > 32.5 µM (inactive) with MCF7; > 100 µM (inactive) with SK-MEL-2. Further, the GI50 in the assay on OVCAR-3 was > 100 µM (inactive).

For the molecule `C=C1C[C@@H]2CC[C@@]34CC5O[C@H]6C(O[C@H]7CC[C@H](CC(=O)O[C@@H]8[C@@H](C)[C@@H]9O[C@@H]%10C[C@]%11(C[C@@H]%12O[C@]%13(C[C@H](C)[C@@H]%14O[C@@H]%15CC(C(COC(C)=O)OC(C)=O)O[C@@H]%15C[C@@H]%14O%13)C[C@H](C)[C@@H]%12O%11)O[C@@H]%10C[C@@H]9O[C@H]8CC8O[C@@H](CC[C@@H]1O2)C[C@@H](C)C8(O)CO)O[C@@H]7[C@@H]6O3)[C@H]5O4` (stereo not given in full), the GI50 with EKVX is > 0.923 µM (active); with SK-OV-3, > 1 µM (active); in the assay on KM12 it was 0.327 µM (active); with NCI/ADR-RES, > 1 µM (active); with SK-MEL-5, 0.243 µM (active); in the assay with COLO 205 it was 0.311 µM (active). The GI50 is 0.455 µM (active) in the assay on SF-268; 0.436 µM (active) in the assay on U-251; 0.413 µM (active) in the assay with RPMI-8226; 0.652 µM (active) with CAKI-1; 0.292 µM (active) in the assay on HCT-116; 0.6 µM (active) in the assay on SW-620. Besides, the GI50 in the assay on A549 is 0.413 µM (active); with OVCAR-4 it was > 1 µM (active); in the assay with A498 it was > 0.597 µM (active); in the assay on LOX IMVI, 0.432 µM (active); in the assay on MCF7 it was 0.249 µM (active); in the assay on SK-MEL-2, 0.721 µM (active). Also, the concentration for 50% growth inhibition (GI50) with OVCAR-3 was 0.431 µM (active).

For the molecule `CC(C)n1c(=O)n(-c2ccccc2)n(C(C)(C)C)c1=O`, the GI50 with EKVX, in the assay on SK-OV-3, with KM12, with NCI/ADR-RES, in the assay on SK-MEL-5 and with COLO 205 was > 100 µM (inactive) in each case. In addition, the GI50 in the assay with U-251, in the assay with CAKI-1, in the assay with HCT-116, in the assay with Malme-3M, in the assay on SW-620 and with A549 was > 100 µM (inactive) throughout. Also, the GI50 in the assay on OVCAR-4, in the assay on A498, with LOX IMVI, in the assay with MCF7, in the assay with SK-MEL-2 and with OVCAR-3 was > 100 µM (inactive) throughout.

As to `CCOC(=O)c1cc(Cl)ccc1OC(N)=O`, the GI50 in the assay on EKVX, in the assay on SK-OV-3, with KM12, in the assay with NCI/ADR-RES, in the assay with SK-MEL-5 and in the assay with COLO 205 was > 100 µM (inactive) each time. The GI50 in the assay with SF-268, in the assay with U-251, in the assay on RPMI-8226, in the assay on CAKI-1, with HCT-116 and with SW-620 was > 100 µM (inactive) in each case. Moreover, the GI50 with A549, with OVCAR-4, in the assay on A498, in the assay with LOX IMVI, with MCF7 and with SK-MEL-2 was > 100 µM (inactive) throughout. For the same molecule, the GI50 in the assay on OVCAR-3 was > 100 µM (inactive).

As for `Cc1n[nH]c(=O)n1N=C(c1ccccc1)c1ccccc1`, the GI50 in the assay on EKVX, in the assay on KM12, in the assay with NCI/ADR-RES, with SK-MEL-5, with COLO 205 and in the assay on SF-268 was > 100 µM (inactive) throughout. In addition, the GI50 in the assay on U-251 was > 100 µM (inactive); with RPMI-8226, > 100 µM (inactive); with CAKI-1, > 100 µM (inactive); in the assay with HCT-116, > 100 µM (inactive); in the assay on Malme-3M, 24.9 µM (inactive); with SW-620, > 100 µM (inactive). Besides, the GI50 with A549, with OVCAR-4, in the assay on A498, with LOX IMVI, with MCF7 and in the assay with SK-MEL-2 was > 100 µM (inactive) in each case. The GI50 with OVCAR-3 is > 100 µM (inactive).

For `COc1cc2c(cc1OC)C1=C(C=O)c3ccc(OC)c(OC)c3C(O)N1CC2` (stereo not given), the GI50 in the assay with EKVX was 21.6 µM (inactive); in the assay on SK-OV-3, 65.8 µM (inactive); with KM12, 28.9 µM (inactive); with NCI/ADR-RES, 26.4 µM (inactive); with SK-MEL-5, 13.3 µM (inactive); in the assay on COLO 205, 20.7 µM (inactive). The GI50 in the assay with SF-268 was 27.5 µM (inactive); in the assay on U-251, 19.2 µM (inactive); in the assay with RPMI-8226, 7.53 µM (inactive); with CAKI-1, 31.2 µM (inactive); with HCT-116, 30.5 µM (inactive); with Malme-3M it was 24.5 µM (inactive). Also, the GI50 was 37.2 µM (inactive) in the assay with SW-620; 22.7 µM (inactive) in the assay with A549; 40.3 µM (inactive) in the assay on OVCAR-4; 21.8 µM (inactive) with A498; 32.6 µM (inactive) in the assay with MCF7; 13.8 µM (inactive) in the assay with SK-MEL-2. Also, the GI50 in the assay with OVCAR-3 is 39 µM (inactive).
